Reference: patent publication US20180251425A1, “2,3,5 TRISUBSTITUTED PYRROLE DERIVATIVES AS TOPOISOMERASE INHIBITORS AND THERAPEUTIC USES THEREOF” (UNIVERSITY OF MYSORE, priority 2015, published 2018)

What was measured:
Assay type in all cases: cell-based
[1] = tested on: HeLa; assay: Cytotoxicity in HeLa cells; conditions: Homo sapiens, read-out: Cytotoxicity IC 50 in μM (Cell lines) HeLa
Method: (§1) Human cancer cell lines, K562, MCF7, HeLa and HEK 293T were purchased from National Centre for Cell Science, Pune, India. Cells were grown in RPMI 1640/MEM/DMEM supplemented with 10% heat-inactivated fetal bovine serum (FBS), 100 U/mL of Penicillin, and 100 μg of streptomycin/mL and incubated at 37° C. in a humidified atmosphere containing 5% CO2.
Cytotoxic effect of the newly synthesized compounds against leukemic cells was assessed using 3-(4, 5-dimethyl-2-yl02, 5-diphenyl tetrazolium bromide (MTT) assay. After exposure of compound at different concentration (0.01, 0.1, 0.5, 1, 10, 50 and 100 μM) cells were harvested and transferred into 96 well plate, MTT (5 mg/ml) was added and incubate at 37° C. for 4 h and formazan crystals were dissolved by adding solubilizing agent (10% SDS and 50% dimethyl formamide) for 1 h, finally plate was read at 570 nm (Bio-Rad, USA). Results were represented as inhibition of percentage of cell proliferation in bar diagram (n=3) (FIGS. 1 A, C, E and G). […]

[2] = tested on: K562; assay: Cytotoxicity (MTT / trypan blue) in K562 cells; conditions: Homo sapiens, read-out: Cytotoxicity IC 50 in μM (Cell lines) K562
Method: as §1
(§2) The human T cell leukemia cell line Molt4, Human acute lymphoblastic leukemia (ALL) cell line Nalm6, Human acute myelocytic leukemia (AML) cell line Reh, chronic myelogenous leukemia (CML) cell line K562, Human breast adenocarcinoma cell lines like MCF7 and human kidney cell line HEK 293T (Human embryonic kidney cell line) were selected for the purpose of preliminary anticancer screening of newly synthesized compounds (ASR1 to ASR15). To check the cytotoxicity, trypan blue dye exclusion assays, MTT assay were employed as described earlier Further, Cell cycle analysis, Mitochondrial membrane potential, Annexin-V FITC staining assay were also performed in order to understand the mode of cell death after treatment with ASR6. Further, ASR6 was also tested for its ability to inhibit topoisomerase I and II activity in vitro.
(§3) Cytotoxic effect of the newly synthesized compounds against leukemic cells was assessed using 3-(4, 5-dimethyl-2-yl02, 5-diphenyl tetrazolium bromide (MTT) assay. After exposure of compound at different concentration (0.01, 0.1, 0.5, 1, 10, 50 and 100 μM) cells were harvested and transferred into 96 well plate, MTT (5 mg/ml) was added and incubate at 37° C. for 4 h and formazan crystals were dissolved by adding solubilizing agent (10% SDS and 50% dimethyl formamide) for 1 h, finally plate was read at 570 nm (Bio-Rad, USA). Results were represented as inhibition of percentage of cell proliferation in bar diagram (n=3) (FIGS. 1 A, C, E and G).
(§4) To determine the growth inhibitory activity of the drug, 0.5×10^5 cell/ml were plated in 24 well (Biofil, USA.) in 1 ml of complete medium and treated with various concentration of the compound to test, cells were stained with 0.4% trypan blue and counted on a hemocytometer after treatment with compounds at 48 and 72 h time point. Results were represented as number of viable cells/ml in bar diagram (FIGS. 1 B, D, F, and H) (n=3).

[3] = tested on: MCF7; assay: Cytotoxicity in MCF7 cells; conditions: Homo sapiens, read-out: Cytotoxicity IC 50 in μM (Cell lines) MCF7
Method: as §1, §2, §3, §4

[4] = tested on: Molt4; assay: Cytotoxicity (MTT / trypan blue) in Molt4 cells; conditions: Homo sapiens, MOLT-4, read-out: Cytotoxicity IC 50 in μM (Cell lines) Molt4
Method: as §1
(§5) Nalm6, Molt4 and Reh cells were provided by Dr. Sathees C. Raghavan, Department of Biochemistry, IISc, Bangalore. The cells were grown under the similar culture conditions as mentioned above.
as §2, §3, §4

[5] = tested on: Reh; assay: Cytotoxicity (MTT / trypan blue) in Reh cells; conditions: Homo sapiens, read-out: Cytotoxicity IC 50 in μM (Cell lines) Reh
Method: as §1, §5, §2, §3, §4

[6] = tested on: Nalm6; assay: Cytotoxicity (MTT / trypan blue) in Nalm6 cells; conditions: Homo sapiens, NALM-6, read-out: Cytotoxicity IC 50 in μM (Cell lines) Nalm6
Method: as §1, §5, §2, §3, §4

| SMILES | IC50 [1] [µM] | IC50 [2] [µM] | IC50 [3] [µM] | IC50 [4] [µM] | IC50 [5] [µM] | IC50 [6] [µM] |
| --- | --- | --- | --- | --- | --- | --- |
| CCOC(=O)c1[nH]c(-c2ccccc2)cc1-c1ccccc1 [ASR1, Ethyl 3,5-diphenyl-1H-pyrrole-2-carboxylate] | > 100 | > 100 | > 100 | > 50 | > 100 | > 50 |
| CCOC(=O)c1[nH]c(-c2ccc(OC)cc2)cc1-c1cccc(C)c1 [ASR2, Ethyl 5-(4-methoxyphenyl)-3-m-tolyl-1H-pyrrole-2-carboxylate] | > 100 | > 100 | > 100 | > 50 | > 100 | > 50 |
| CCOC(=O)c1[nH]c(-c2ccc(OC)cc2)cc1-c1ccco1 [ASR3, Ethyl 3-(furan-2-yl)-5-(4-methoxyphenyl)-1H-pyrrole-2-carboxylate] | > 100 | > 100 | > 100 | > 50 | > 100 | > 50 |
| CCOC(=O)c1[nH]c(-c2ccc(C)cc2)cc1-c1cccc([N+](=O)[O-])c1 [ASR4, Ethyl 3-(3-nitrophenyl)-5-p-tolyl-1H-pyrrole-2-carboxylate] | > 100 | > 100 | > 100 | > 50 | > 100 | > 50 |
| CCOC(=O)c1[nH]c(-c2ccc(C)cc2)cc1-c1ccc(C#N)cc1 [ASR5, Ethyl 3-(4-cyanophenyl)-5-p-tolyl-1H-pyrrole-2-carboxylate] | > 100 | > 100 | > 100 | > 50 | > 100 | > 50 |
| CCOC(=O)c1[nH]c(-c2ccc(Cl)cc2)cc1-c1ccc2ccccc2c1 [ASR7, Ethyl 5-(4-chlorophenyl)-3-(naphthalen-2-yl)-1H-pyrrole-2-carboxylate] | > 100 | > 100 | > 100 | 30.8 | > 100 | > 50 |
| CCOC(=O)c1[nH]c(-c2cccs2)cc1-c1cccs1 [ASR8, Ethyl 3,5-di(thiophen-2-yl)-1H-pyrrole-2-carboxylate] | > 100 | > 100 | > 100 | 35.3 | > 100 | > 50 |
| CCOC(=O)c1[nH]c(-c2cccs2)cc1-c1ccc(Br)cc1 [ASR9, Ethyl 3-(4-bromophenyl)-5-(thiophen-2-yl)-1H-pyrrole-2-carboxylate] | > 100 | > 100 | > 100 | 50 | > 100 | > 50 |
| CCOC(=O)c1[nH]c(-c2ccc(OC)c(OC)c2)cc1-c1ccc(C(F)(F)F)cc1 [ASR10, Ethyl 5-(3,4-dimethoxyphenyl)-3-(4-(trifluoromethyl)phenyl)-1H-pyrrole-2-carboxylate] | > 100 | > 100 | > 100 | 7.96 | > 100 | 20 |
| COC(=O)c1[nH]c(-c2cccc(OC)c2)cc1-c1ccc(C(F)(F)F)cc1 [ASR11, Methyl 5-(3-methoxyphenyl)-3-(4-(trifluoromethyl)phenyl)-1H-pyrrole-2-carboxylate] | > 100 | > 100 | > 100 | 17 | > 100 | 9.53 |
| CCOC(=O)c1[nH]c(-c2ccc(OC)c(OC)c2)cc1-c1ccncc1 [ASR12, Ethyl 5-(3,4-dimethoxyphenyl)-3-(pyridin-4-yl)-1H-pyrrole-2-carboxylate] | > 100 | > 100 | > 100 | 26.1 | > 100 | 14.3 |
| COC(=O)c1[nH]c(-c2ccc(C)cc2)cc1-c1cccc([N+](=O)[O-])c1 [ASR13, Methyl 3-(3-nitrophenyl)-5-p-tolyl-1H-pyrrole-2-carboxylate] | > 100 | > 100 | > 100 | 8.84 | > 100 | 11 |
| CCOC(=O)c1[nH]c(-c2cc(OC)c(OC)c(OC)c2)cc1-c1cccs1 [ASR14, Ethyl 3-(thiophen-2-yl)-5-(3,4,5-trimethoxyphenyl)-1H-pyrrole-2-carboxylate] | > 100 | > 100 | > 100 | 15.2 | > 100 | 10.5 |
| CCOC(=O)c1[nH]c(-c2cccc(OC)c2)cc1-c1ccncc1 [ASR15, Ethyl 5-(3-methoxyphenyl)-3-(pyridin-4-yl)-1H-pyrrole-2-carboxylate] | > 100 | > 100 | > 100 | 12.9 | > 100 | 5.4 |
